We go through six compounds from PMC6959841, “Kinetic Optimization of Lysine-Targeting Covalent Inhibitors of HSP72” (Journal of Medicinal Chemistry, 2019).

For series [1], the target named is T1, HSP72-NBD (Homo sapiens, UniProt P0DMV8). In words: Covalent (kinetic) FP-assay. Format: binding.
Series [2] addresses T1, HSP72-NBD. Briefly: HSP72-NBD nucleotide-derived FP-assay (probe displacement, App. Ki, time-dependent). Format: binding.
For series [3], the target named is T1, HSP72-NBD. Briefly: Intact-protein mass spectrometry of covalent adduct formation. Format: binding. The note with it: 20 μM compound, 2.0 μM HSP72-NBD, 21 °C.
The test system of series [4] is HSP72. Conditions: read-out: KM for ATP; cited from earlier work.
Series [5] addresses T1, HSP72-NBD. Conditions: even at high concentrations; cited from earlier work.

“Also recorded” adds a separate entry of the source.

T1 sequence (P0DMV8 2-386 limits assumed): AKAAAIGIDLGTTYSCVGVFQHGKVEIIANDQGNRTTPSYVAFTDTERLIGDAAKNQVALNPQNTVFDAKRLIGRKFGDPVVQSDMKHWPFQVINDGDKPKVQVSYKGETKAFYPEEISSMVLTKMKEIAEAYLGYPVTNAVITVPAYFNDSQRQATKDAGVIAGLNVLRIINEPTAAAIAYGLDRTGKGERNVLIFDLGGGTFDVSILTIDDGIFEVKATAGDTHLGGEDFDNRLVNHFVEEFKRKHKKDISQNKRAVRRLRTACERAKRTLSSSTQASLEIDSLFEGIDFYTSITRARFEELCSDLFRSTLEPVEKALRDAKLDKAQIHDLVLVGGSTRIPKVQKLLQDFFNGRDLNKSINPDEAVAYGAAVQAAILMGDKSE

Regarding `Nc1ncnc2c1ncn2[C@@H]1O[C@H](COC(=O)c2ccc(S(=O)(=O)F)cc2)[C@@H](O)[C@H]1O` [Compound 16, ((2R,3S,4R,5R)-5-(6-amino-9H-purin-9-yl)-3,4-dihydroxytetrahydrofuran-2-yl)methyl 4-(fluorosulfonyl)benzoate], the “fold weaker activity / decrease in covalent efficiency vs TCI 14” value in series [1] was determined as 70 fold.
On to `CC1(C)O[C@@H]2[C@H](O1)[C@@H](COC(=O)c1ccc(S(=O)(=O)F)cc1)O[C@H]2n1c(NCc2ccc(Cl)cc2)nc2c(N)ncnc21` [Compound 13, ((3aR,4R,6R,6aR)-6-(6-amino-8-((4-chlorobenzyl)amino)-9H-purin-9-yl)-2,2-dimethyltetrahydrofuro[3,4-d][1,3]dioxol-4-yl)methyl 4-(fluorosulfonyl)benzoate], for which the “reversible binding affinity” value in series [2] is recorded as “no reversible binding affinity”. In series [2] (WT HSP72-NBD), the “time dependence of App. Ki / probe displacement curve” value is listed as “no time-dependent displacement”. The “covalent-bond formation by intact-protein MS” value in series [3] is reported as “no reaction; also recorded: no reactivity”.
As for `N#Cc1ccc(C(=O)OC[C@H]2O[C@@H](n3c(NCc4ccc(Cl)cc4)nc4c(N)ncnc43)[C@H](O)[C@@H]2O)cc1` [Compound 15, ((2R,3S,4R,5R)-5-(6-amino-8-((4-chlorobenzyl)amino)-9H-purin-9-yl)-3,4-dihydroxytetrahydrofuran-2-yl)methyl 4-cyanobenzoate], the “fold weaker/less potent than tight-binding reversible MMP 9” value in series [2] is over 18 fold.
On to `Nc1ncnc2c1ncn2[C@@H]1O[C@H](COP(=O)(O)OP(=O)(O)OP(=O)(O)O)[C@@H](O)[C@H]1O` [ATP], for which the Km (in general, the concentration of substrate that gives half-maximal velocity) in series [4] is about 1 µM.
On to `C=CC(=O)OCCC[C@H]1O[C@@H](n2c(NCc3ccc(Cl)cc3)nc3c(N)ncnc32)[C@H](O)[C@@H]1O` [Compound 2, 3-((2R,3S,4R,5R)-5-(6-amino-8-((4-chlorobenzyl)amino)-9H-purin-9-yl)-3,4-dihydroxytetrahydrofuran-2-yl)propyl acrylate], for which the figures for the Ki in series [2] (Time 19 h), in series [2] (Time 46 h) and in series [2] (Time […] (printed 0.08 3)) were 7.2 µM, 3.7 µM and 17 µM, respectively. For the same compound, in series [1] (from kinact/KI and initial Ki, assuming KI = Ki), the kinact – broadly, the maximal first-order rate at which the target is inactivated – is 1.6e-05 s⁻¹. In addition, in series [1] (ln 2/kinact), the “t1/2^inf” value amounted to 12 h. Also, the “exposure required for complete formation of the covalent complex by intact-protein MS” value in series [5] is reported as over 24 h.
Consider `Nc1ncnc2c1nc(NCc1ccc(Cl)cc1)n2[C@@H]1O[C@H](COCc2ccc(C(=O)Oc3ccc(F)cc3)cc2)[C@@H](O)[C@H]1O` [Compound 8, 4-fluorophenyl 4-((((2R,3S,4R,5R)-5-(6-amino-8-((4-chlorobenzyl)amino)-9H-purin-9-yl)-3,4-dihydroxytetrahydrofuran-2-yl)methoxy)methyl)benzoate], for which the “covalent-bond formation by intact-protein MS” value in series [3] was “no evidence of specific and selective covalent-bond formation”.
